The test system of series [1] is heart valve tissues (pulmonary artery, leaflet and cardiac muscle). In words: alamarBlue metabolic activity of heart valve tissues vitrified in 4 mL of solution (FIG. 1). The format is cell-based. To be noted: for leaflet viability: 4 mL; for leaflet viability / tissue viability: p<0.05; for post-vitrification viability: 0.6M sugar in DP6, VS49 and VS55; for tissue viability: trehalose and sucrose supplementation of vitrification formulations (VS49, DP6, VS55), compared with no additive controls, N=6. The procedure: (§1) In the following ice-free cryopreservation formulation supplementation experiments, disaccharides (trehalose and sucrose) are added to various vitrification formulations (VS49, DP6, and VS55) in the amounts shown in FIG. 1 and compared to a solution (without trehalose and/or sucrose) to access the effectiveness at inhibiting ice formation in various tissues.
Data shown in % of control VS55 results performed with the final cryoprotectant concentration added at 4° C., N=6, *p<0.05 by ANOVA or #T-test compared with no additive controls.
In this experiment, addition of either 600 mM trehalose or sucrose to VS49, DP6 and VS55 formulations was compared. The tissues were vitrified in 4 mL of solution. Trehalose supplementation increased leaflet viability in VS49 and VS55. Sucrose supplementation increased leaflet viability in all three formulations. […] This led to plans to test DP6 with sugars more thoroughly in later experiments. Repetitive experiments were performed using sucrose supplemented VS55 and obtained outcomes similar to those for supplemented VS55 shown here.
Bonafide excess heart valves or blood vessels were obtained from animals employed in other IACUC approved research studies or from a food processing plant post-mortem. The tissues were dissected, rinsed and placed in sterile cups with ice-cold tissue culture medium containing antibiotics overnight and then allocated for in vitro studies. The heart valve tissues in FIG. 1 each consisted of a piece of tissue consisting of pulmonary artery, leaflet and cardiac muscle. They were separated and individually assayed for viability using an assay that assesses metabolic activity that is described below.
(§2) Tissues were gradually infiltrated with VS55 consisting of 3.10 M DMSO, 3.10M formamide, and 2.21 M propylene glycol in Euro-Collins solution at 4° C. using methods previously described for blood vessel vitrification, a dilution of VS55 to VS49 or DP6 consisting of 3 M DMSO, 3 M propylene glycol. Precooled dilute vitrification solutions (4° C.) are added in five sequential 15-min steps of increasing concentration on ice. The last cryoprotectant concentration with mNPs was added in a final sixth addition step in either precooled −10° C. or 4° C. full strength vitrification solution and kept in a −10° C. bath for 15 minutes or at 4° C. on ice in plastic tubes. The samples were then cooled in two steps, first rapid cooling to −100° C. by placing in a precooled 2-methylbutane bath at −135° C. and then by transfer to vapor phase nitrogen storage for slower cooling to below −135° C. Finally, the samples were stored below −130° C. in vapor phase nitrogen for at least 24 h before testing.
(§3) Warming was performed by either convection warming or nanowarming. Convection warming is a two-stage process including slow warming to −100° C. and then as rapid as possible warming to melting. The slow warming rate is created by taking the sample to the top of the −135° C. freezer and the […] warming rate is generated by placing the plastic container in the mixture of 30% DMSO/H2O at room temperature. After rewarming, the vitrification solution was removed in a stepwise manner on ice to keep the tissues cold and minimize cytotoxicity due to the presence of residual cryoprotectants.
Metabolic Activity—An alamarBlue™ assay will be used to evaluate the metabolic activity of control and treated tissue samples. Tissues were incubated in 2 ml of DMEM+10% FBS culture medium for one hour to equilibrate followed by the addition of 20% AlamarBlue under standard cell culture conditions for 3 hours. AlamarBlue is a non-toxic fluorometric indicator based on detection of metabolic activity. Fluorescence was measured at an excitation wavelength of 544 nm and an emission wavelength of 590 nm. […] Control and experimental tissues were dried at the end of each experiment, weighed, and results expressed as relative fluorescence units (RFU)/mg tissue dry weight.
In general terms: Resazurin is reduced to fluorescent resorufin, in cell work by metabolically active cells.

The nature of series [2]: visible ice formation during cooling and rewarming, 1st set of experiments. In kind it is physicochemical. The settings on record: for visible ice formation: 0.6M sugar in both DP6 and VS49 formulations; for ice formation during cooling and rewarming: in the presence of the sugar, with nanowarming. The procedure: as §1, §2, §3
A short description of series [3]: ice formation in VS55 supplemented with sugars stored at −80 C (FIG. 7). The format is physicochemical. The settings on record: for sugar concentrations in VS55 that demonstrated ice (white) formation: 24 hours at −80° C. The procedure: In this experiment 30 mL samples of VS55 with increasing concentrations of sugars were placed in 50 mL plastic tubes and stored in a −80 C mechanical storage freezer for 7 days. The tubes were checked daily for ice formation. […] After one day 0.4 to 0.6M trehalose and 0.5-0.6M sucrose were free of ice, while after 7 days 0.5-0.6M trehalose and 0.6M sucrose groups were free of ice. Lower concentrations of these sugars may still be used for ice-free vitrification but more rapid cooling and warming will be needed because the risk of ice formation will be greater and nanowarming rather than convection warming may be needed. Specifically, FIG. 7 is photograph illustrating the ice formation in VS55 supplemented with sugars at −80° C.: Top left: VS55 with 0-0.6M sucrose at 24 hours; Top right: VS55 with 0-0.6M trehalose at 24 hours. […] Higher concentrations were clear without ice. Bottom left: VS55 with 0-0.6M sucrose at 7 days; and Bottom right: VS55 with 0-0.6M trehalose at 7 days. After a week at −80° C. the highest concentrations of sugars are still free of ice.

Consider `OC[C@H]1O[C@@](CO)(O[C@H]2O[C@H](CO)[C@@H](O)[C@H](O)[C@H]2O)[C@@H](O)[C@@H]1O` [sucrose], for which, in series [1] (600 mM sucrose added to all three formulations (VS49, DP6, VS55)), the leaflet viability result is “increased”. In series [1], the post-vitrification viability result is on record as “increases” and the tissue viability entry was “significant increases”. Besides, in series [2], the visible ice formation entry was “prevents visible ice formation”; the “ice formation during cooling and rewarming” value is listed as “no ice formation”. In addition, the “sugar concentrations in VS55 that demonstrated ice (white) formation” value in series [3] was 0 to 0.4 M. Further, the “sugar concentrations in VS55 free of ice” value in series [3] (after 7 days at −80 C, 30 mL samples) is 0.6 M.
Take `OC[C@H]1O[C@H](O[C@H]2O[C@H](CO)[C@@H](O)[C@H](O)[C@H]2O)[C@H](O)[C@@H](O)[C@@H]1O` [trehalose]: in series [1], the post-vitrification viability result is on record as “increases” and the tissue viability entry was “significant increases”. For the same molecule, in series [1] (600 mM trehalose added to VS49 and VS55), the leaflet viability entry is reported as “increased”. In series [2], the visible ice formation result is “prevents visible ice formation”; the “ice formation during cooling and rewarming” value was “no ice formation”. The “sugar concentrations in VS55 that demonstrated ice (white) formation” value in series [3] fell in the range of 0 to 0.6 M.

(Values after US11246308B2, “Ice-free preservation of large volume tissue samples for viable, functional tissue banking” (TISSUE TESTING TECHNOLOGIES LLC, priority 2016, dated 2022).)
